This test has as its target T1, Jack Bean α-mannosidase (Canavalia ensiformis, UniProt C0HJB3).
T1 construct: purchased Sigma Aldrich, St. Louis, MO, USA
T1 sequence (C0HJB3 1-981): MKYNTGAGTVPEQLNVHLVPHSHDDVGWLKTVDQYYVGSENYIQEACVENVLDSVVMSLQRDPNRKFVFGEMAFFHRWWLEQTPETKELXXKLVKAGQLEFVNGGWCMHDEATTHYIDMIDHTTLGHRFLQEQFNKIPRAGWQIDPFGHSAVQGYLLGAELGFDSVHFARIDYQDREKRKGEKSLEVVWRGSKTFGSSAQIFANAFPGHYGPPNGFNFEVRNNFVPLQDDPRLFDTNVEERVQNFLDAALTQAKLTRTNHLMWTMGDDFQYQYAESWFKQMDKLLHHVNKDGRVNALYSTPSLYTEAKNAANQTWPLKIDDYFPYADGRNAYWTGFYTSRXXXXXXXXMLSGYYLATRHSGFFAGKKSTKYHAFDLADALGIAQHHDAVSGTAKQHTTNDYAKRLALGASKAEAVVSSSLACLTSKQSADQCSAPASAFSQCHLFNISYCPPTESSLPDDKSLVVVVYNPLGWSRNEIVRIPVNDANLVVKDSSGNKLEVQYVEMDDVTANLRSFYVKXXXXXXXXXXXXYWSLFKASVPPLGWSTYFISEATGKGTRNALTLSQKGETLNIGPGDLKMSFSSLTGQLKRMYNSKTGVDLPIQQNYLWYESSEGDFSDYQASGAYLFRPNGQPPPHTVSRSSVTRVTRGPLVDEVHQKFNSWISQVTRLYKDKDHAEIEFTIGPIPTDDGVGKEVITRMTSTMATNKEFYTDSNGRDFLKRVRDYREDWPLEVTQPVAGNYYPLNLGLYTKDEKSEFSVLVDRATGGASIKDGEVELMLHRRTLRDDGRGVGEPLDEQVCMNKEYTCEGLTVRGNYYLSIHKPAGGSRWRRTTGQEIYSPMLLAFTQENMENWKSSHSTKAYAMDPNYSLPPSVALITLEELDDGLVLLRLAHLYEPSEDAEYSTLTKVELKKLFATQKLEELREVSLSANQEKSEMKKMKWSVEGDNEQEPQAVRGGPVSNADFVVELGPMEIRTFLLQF
The test can be described thus: Inhibition assays on Jack-Bean α-mannosidase (p-nitrophenyl-α-D-mannopyranoside hydrolysis, Dixon and Lineweaver–Burk). In kind it is biochemical. Conditions: for pKi: 0.2 M acetate buffer pH 5, 25-27 °C, for mixed inhibitors the first value of the cell (Ki); for rp/n (relative potency per inhitope): n = number of inhitope units; for Rp (relative potency): rp = Ki (monovalent reference)/Ki (neoglycocluster); for Ki': mixed inhibition, second value of the cell (Ki' in supplement). As for the experimental part:
p-nitrophenyl-α-D-mannopyranoside and α-mannosidase (EC 3.2.1.24, from Jack Bean) were purchased from Sigma Aldrich, St. Louis, MO, USA. Inhibition constants were determined spectrophotometrically by measuring the residual hydrolytic activities of the α-mannosidase against p-nitrophenyl-α-D-mannopyranoside in the presence and absence of an inhibitor. Each well was filled with a total volume of 100 µL, containing 0.2 M acetate buffer pH 5, inhibitor, substrate and enzyme. All kinetics were performed between 25 °C and 27 °C and started by enzyme addition. After 30–50 min of incubation, the reaction was quenched by addition of 100 µL of 1M Na2CO3. The absorbance of the resulting solution was determined at 405 nm. Ki values were determined in triplicate, using the Dixon and Lineweaver–Burk graphical methods within Microsoft Excel. Stock solutions of inhibitors were prepared with DMSO/buffer for final well DMSO content under 5%. The stability of the enzyme in the presence of the same concentrations of DMSO was controlled and enzyme activity was unaffected.

pKi: −log10 of the molar value.

With `O=C1N(Cc2cn(CCCCCCN3C[C@H](O)[C@@H](O)[C@H](O)[C@H]3CO)nn2)[C@H]2[C@@H](N1Cc1cn(CCCCCCN3C[C@H](O)[C@@H](O)[C@H](O)[C@H]3CO)nn1)N1CN3C(=O)N(CN4C(=O)N(CN5C(=O)N(CN2C1=O)[C@@H]1[C@H]5N(Cc2cn(CCCCCCN5C[C@H](O)[C@@H](O)[C@H](O)[C@H]5CO)nn2)C(=O)N1Cc1cn(CCCCCCN2C[C@H](O)[C@@H](O)[C@H](O)[C@H]2CO)nn1)[C@H]1[C@@H]4N(Cc2cn(CCCCCCN4C[C@H](O)[C@@H](O)[C@H](O)[C@H]4CO)nn2)C(=O)N1Cc1cn(CCCCCCN2C[C@H](O)[C@@H](O)[C@H](O)[C@H]2CO)nn1)[C@@H]1[C@H]3N(Cc2cn(CCCCCCN3C[C@H](O)[C@@H](O)[C@H](O)[C@H]3CO)nn2)C(=O)N1Cc1cn(CCCCCCN2C[C@H](O)[C@@H](O)[C@H](O)[C@H]2CO)nn1` [Compound 3, (DNJ-C6)8BU[4]], the “Inhibition Mode” value is “competitive”, the pKi is 5.01, the “rp/n (relative potency per inhitope)” value turned out to be 4 and the “Rp (relative potency)” value turned out to be 33.
For `O=C1N(Cc2cn(CCCCCCCCCN3C[C@H](O)[C@@H](O)[C@H](O)[C@H]3CO)nn2)C2C(N1Cc1cn(CCCCCCCCCN3C[C@H](O)[C@@H](O)[C@H](O)[C@H]3CO)nn1)N1CN3C(=O)N(CN4C(=O)N(CN5C(=O)N(CN2C1=O)C1C5N(Cc2cn(CCCCCCCCCN5C[C@H](O)[C@@H](O)[C@H](O)[C@H]5CO)nn2)C(=O)N1Cc1cn(CCCCCCCCCN2C[C@H](O)[C@@H](O)[C@H](O)[C@H]2CO)nn1)C1C4N(Cc2cn(CCCCCCCCCN4C[C@H](O)[C@@H](O)[C@H](O)[C@H]4CO)nn2)C(=O)N1Cc1cn(CCCCCCCCCN2C[C@H](O)[C@@H](O)[C@H](O)[C@H]2CO)nn1)C1C3N(Cc2cn(CCCCCCCCCN3C[C@H](O)[C@@H](O)[C@H](O)[C@H]3CO)nn2)C(=O)N1Cc1cn(CCCCCCCCCN2C[C@H](O)[C@@H](O)[C@H](O)[C@H]2CO)nn1` (stereo partly drawn) [Compound 4, (DNJ-C9)8BU[4]], in that order: “competitive”, 6.15, 33 and 265.
For `O=C1N(Cc2cn(CCCCCCCCCN3C[C@H](O)[C@@H](O)[C@H](O)[C@H]3CO)nn2)C2C(N1Cc1cn(CCCCCCCCCN3C[C@H](O)[C@@H](O)[C@H](O)[C@H]3CO)nn1)N1CN3C(=O)N(CN4C(=O)N(CN5C(=O)N(CN6C(=O)N(CN7C(=O)N(CN2C1=O)C1C7N(Cc2cn(CCCCCCCCCN7C[C@H](O)[C@@H](O)[C@H](O)[C@H]7CO)nn2)C(=O)N1Cc1cn(CCCCCCCCCN2C[C@H](O)[C@@H](O)[C@H](O)[C@H]2CO)nn1)C1C6N(Cc2cn(CCCCCCCCCN6C[C@H](O)[C@@H](O)[C@H](O)[C@H]6CO)nn2)C(=O)N1Cc1cn(CCCCCCCCCN2C[C@H](O)[C@@H](O)[C@H](O)[C@H]2CO)nn1)C1C5N(Cc2cn(CCCCCCCCCN5C[C@H](O)[C@@H](O)[C@H](O)[C@H]5CO)nn2)C(=O)N1Cc1cn(CCCCCCCCCN2C[C@H](O)[C@@H](O)[C@H](O)[C@H]2CO)nn1)C1C4N(Cc2cn(CCCCCCCCCN4C[C@H](O)[C@@H](O)[C@H](O)[C@H]4CO)nn2)C(=O)N1Cc1cn(CCCCCCCCCN2C[C@H](O)[C@@H](O)[C@H](O)[C@H]2CO)nn1)C1C3N(Cc2cn(CCCCCCCCCN3C[C@H](O)[C@@H](O)[C@H](O)[C@H]3CO)nn2)C(=O)N1Cc1cn(CCCCCCCCCN2C[C@H](O)[C@@H](O)[C@H](O)[C@H]2CO)nn1` (stereo partly drawn) [Compound 7, (DNJ-C9)12BU[6]], in that order: “competitive”, 5.97, 15 and 177.
As to `CCCC[N+](CCCC)(CCCC)CCCC.O=C1N(Cc2cn(CCCCCCN3C[C@H](O)[C@@H](O)[C@H](O)[C@H]3CO)nn2)C2C(N1Cc1cn(CCCCCCN3C[C@H](O)[C@@H](O)[C@H](O)[C@H]3CO)nn1)N1CN3C(=O)N(CN4C(=O)N(CN5C(=O)N(CN6C(=O)N(CN7C(=O)N(CN2C1=O)C1C7N(Cc2cn(CCCCCCN7C[C@H](O)[C@@H](O)[C@H](O)[C@H]7CO)nn2)C(=O)N1Cc1cn(CCCCCCN2C[C@H](O)[C@@H](O)[C@H](O)[C@H]2CO)nn1)C1C6N(Cc2cn(CCCCCCN6C[C@H](O)[C@@H](O)[C@H](O)[C@H]6CO)nn2)C(=O)N1Cc1cn(CCCCCCN2C[C@H](O)[C@@H](O)[C@H](O)[C@H]2CO)nn1)C1C5N(Cc2cn(CCCCCCN5C[C@H](O)[C@@H](O)[C@H](O)[C@H]5CO)nn2)C(=O)N1Cc1cn(CCCCCCN2C[C@H](O)[C@@H](O)[C@H](O)[C@H]2CO)nn1)C1C4N(Cc2cn(CCCCCCN4C[C@H](O)[C@@H](O)[C@H](O)[C@H]4CO)nn2)C(=O)N1Cc1cn(CCCCCCN2C[C@H](O)[C@@H](O)[C@H](O)[C@H]2CO)nn1)C1C3N(Cc2cn(CCCCCCN3C[C@H](O)[C@@H](O)[C@H](O)[C@H]3CO)nn2)C(=O)N1Cc1cn(CCCCCCN2C[C@H](O)[C@@H](O)[C@H](O)[C@H]2CO)nn1.[Br-]` (stereo partly drawn) [Compound 8, Br^−@(DNJ-C6)12BU[6].TBA^+], the “Inhibition Mode” value was “mixed”, the pKi was 4.07, the “Ki'” value came out at 191 ± 37 µM and the “Rp (relative potency)” value came to 3.8.
As to `CCCC[N+](CCCC)(CCCC)CCCC.O=C1N(Cc2cn(CCCCCCN3C[C@H](O)[C@@H](O)[C@H](O)[C@H]3CO)nn2)C2C(N1Cc1cn(CCCCCCN3C[C@H](O)[C@@H](O)[C@H](O)[C@H]3CO)nn1)N1CN3C(=O)N(CN4C(=O)N(CN5C(=O)N(CN6C(=O)N(CN7C(=O)N(CN2C1=O)C1C7N(Cc2cn(CCCCCCN7C[C@H](O)[C@@H](O)[C@H](O)[C@H]7CO)nn2)C(=O)N1Cc1cn(CCCCCCN2C[C@H](O)[C@@H](O)[C@H](O)[C@H]2CO)nn1)C1C6N(Cc2cn(CCCCCCN6C[C@H](O)[C@@H](O)[C@H](O)[C@H]6CO)nn2)C(=O)N1Cc1cn(CCCCCCN2C[C@H](O)[C@@H](O)[C@H](O)[C@H]2CO)nn1)C1C5N(Cc2cn(CCCCCCN5C[C@H](O)[C@@H](O)[C@H](O)[C@H]5CO)nn2)C(=O)N1Cc1cn(CCCCCCN2C[C@H](O)[C@@H](O)[C@H](O)[C@H]2CO)nn1)C1C4N(Cc2cn(CCCCCCN4C[C@H](O)[C@@H](O)[C@H](O)[C@H]4CO)nn2)C(=O)N1Cc1cn(CCCCCCN2C[C@H](O)[C@@H](O)[C@H](O)[C@H]2CO)nn1)C1C3N(Cc2cn(CCCCCCN3C[C@H](O)[C@@H](O)[C@H](O)[C@H]3CO)nn2)C(=O)N1Cc1cn(CCCCCCN2C[C@H](O)[C@@H](O)[C@H](O)[C@H]2CO)nn1.[I-]` (stereo partly drawn) [Compound 9, I^-@(DNJ-C6)12BU[6].TBA^+], the “Inhibition Mode” value is given as “mixed”, the pKi was 3.97, the “Ki'” value was 162 ± 40 µM and the “rp/n (relative potency per inhitope)” value is reported as less than 1. For the same compound, the “Rp (relative potency)” value is 3.0.

What is called pKi is the negative decadic logarithm of the Ki, by convention in mol/L.

Source of the values: publication PMC9330389, “Bambus[4,6]urils as Dual Scaffolds for Multivalent Iminosugar Presentation and Ion Transport: Access to Unprecedented Glycosidase-Directed Anion Caging Agents” (Molecules, 2022).
